In patent publication US20200121652A1, “COMPOUNDS HAVING CASPASE INHIBITORY ACTIVITY, PHARMACEUTICAL AGENT CONTAINING SAID COMPOUNDS AND FOR TREATING OR PREVENTING CORNEAL ENDOTHELIAL SYMPTOMS, DISORDERS, OR DISEASES, AND APPLICATION OF SAID PHARMACEUTICAL AGENT” (The Doshisha, priority 2017, published 2020):

Assays:
Assay type in all cases: cell-based
[1] = tested on: Fuchs' endothelial corneal dystrophy patient derived immortalized human corneal endothelial cells; test: Phase contrast microscope observation of cell damage after TGF-β2 stimulation (Examples 4-6); conditions: then TGF-β2 10 ng/ml 24 h; for disorder in corneal endothelial cells (phase contrast microscope): pretreated 24 h
Description: (§1) The medium was removed from the culture dish in which Fuchs' endothelial corneal dystrophy patient derived immortalized human corneal endothelial cells were being cultured, and the cells were supplemented with 1× PBS (−) that was preheated to 37° C., and were washed. This was repeated twice. The cells were supplemented with 1× PBS (−) again and incubated for 5 minutes at 37° C. (5% CO2). After removing the PBS (−), the cells were supplemented with 0.05% Trypsin-EDTA (nacalai tesque, 32778-34) and incubated for 5 minutes at 37° C. (5% CO2). The cells were then suspended in a medium, and collected by centrifugation at 1500 rpm for 3 minutes. DMEM (nacalai tesque, 08456-36) +10% FBS (Sigma, 13H467)+1% P/S (nacalai tesque, 26252-94) was used as the medium.
Fuchs' endothelial corneal dystrophy patient derived immortalized human corneal endothelial cells (lot: iFECD3-5) were seeded on a 12-well plate at a ratio of 5.0×10^4 cells per well, and cultured for 24 hours at 37° C. (5% CO2). DMEM+10% FBS+1% P/S was used as the medium.
(§2) After 24 hours, the medium was removed, fluticasone furoate (AXON MEDCHEM, 1172) was added so that the final concentration was each 0.0001, 0.0003, 0.001, 0.003, 0.01, 0.03, 0.1, 0.3, 1, and 3 μM, and the cells were cultured for 24 hours. DMEM+2% FBS+1% P/S was used as the medium.
After 24 hours, the medium was removed, fluticasone furoate was added together with 10 ng/ml Transforming Growth Factor-82 Human recombinant (WAKO, 200-19911) so that the final concentration was each 0.0001, 0.0003, 0.001, 0.003, 0.01, 0.03, 0.1, 0.3, 1, and 3 μM, and the cells were cultured for 24 hours. Medium: DMEM+2% FBS+1% P/S
After 24 hours, cell morphology and apoptosis were observed using a phase difference microscope.
In this example, TGF-β inhibiting activity of ZK216348 (AXON MEDCHEM, AXON2239), which is one of SEGRMs, was tested. The operation by a phase contrast microscope was carried out in the same manner as Example 4. 10 μM of ZK216348 was used as the final concentration.
After 24 hours, the medium was removed, ZK216348 was added together with 10 ng/ml Transforming Growth Factor-β2 Human recombinant (WAKO, 200-19911) so that the final concentration was […], and the cells were cultured for 24 hours. DMEM+2% FBS+1% P/S was used as the medium.

[2] = tested on: Fuchs' endothelial corneal dystrophy patient derived immortalized human corneal endothelial cells; test: Cell Titer-Glo Luminescent Cell Viability Assay (Examples 4-5); conditions: all concentrations of 0.0001, 0.0003, 0.001, 0.003, 0.01, 0.03, 0.1, 0.3, 1, and 3 μM
Description: as §1
Fuchs' endothelial corneal dystrophy patient derived immortalized human corneal endothelial cells (lot: iFECD3-5) were seeded on a 96-well plate at a ratio of 7×10^3 cells per well, and cultured at 37° C. (5% CO2) until reaching confluence. DMEM+10% FBS+1% P/S was used as the medium. […]
Cell viability was analyzed using Cell Titer-Glo Luminescent Cell Viability Assay by the following procedure.
The medium was discarded to achieve 50 μl per well. […] After being left still, 80 μl was transferred to Assay plate (Corning, 3912, Assay plate 96 well, white polystyrene) and […] was measured using GloMax-Multi Detection System (Promega, E7051). […]

[3] = tested on: Fuchs' endothelial corneal dystrophy patient derived immortalized human corneal endothelial cells; test: Caspase-Glo 3/7 Assay after pretreatment and TGF-β2 stimulation (Examples 4-5); conditions: for activity of Caspase 3/7: TGF-β2 10 ng/ml 24 h; for ratio of (caspase 3/7 activity)/(cell viability): agent concentration 0.0001 to 3 μM (FIG. 12)
Description: as §1
Fuchs' endothelial corneal dystrophy patient derived immortalized human corneal endothelial cells (lot: iFECD3-5) were seeded on a 96-well plate at a ratio of 7×10^3 cells per well, and cultured at 37° C. (5% CO2) until reaching confluence. DMEM+10% FBS+1% P/S was used as the medium.
as §2
After 24 hours, the medium was removed, 10 ng/ml Transforming Growth Factor-82 Human recombinant (WAKO, 200-19911) and fluticasone furoate were added so that the final concentration was each 0.0001, 0.0003, 0.001, 0.003, 0.01, 0.03, 0.1, 0.3, 1, and 3 μM, and the cells were cultured for 24 hours. DMEM+2% FBS+1% P/S was used as the medium.
After observation, measurement of caspase 3/7 activity by Caspase-Glo 3/7 Assay was carried out with the following procedure.
The medium was discarded to achieve 50 μl per well. 50 μl/well of CaspaseGlo 3/7 Assay Reagent (mixture of Caspase-Glo 3/7 Assay Buffer and Caspase-Glo 3/7 Assay Substrate) (Promega, G8091) solution was added so as to achieve 1:1 with the medium. The operations hereafter were carried out while being shaded. A shaker was used to mix the content well for 2 minutes at about 120 r/min to then be left still for 40 minutes at room temperature. After being left still, 80 μl was transferred to Assay plate (Corning, 3912, Assay plate 96 well, white polystyrene) and […] was measured using GloMax-Multi Detection System (Promega, E7051). Furthermore, 10 μM Z-VD-FMK (WAKO, 262-02061), which is a caspase inhibitor, was used as the positive control.
In this example, TGF-β inhibiting activity of fluticasone propionate (AXON MEDCHEM, 1404), which is one of SEGRAs, was tested. The test was conducted by the same procedure as Example 4.

Row | Structure (SMILES) | free cells and disorder in corneal endothelial cells (phase contrast microscope) ([1]; pretreated, final concentration 10 μM) | cell viability [2] | disorder in corneal endothelial cells (phase contrast microscope) ([1]; 0.0001 and 0.0003 μM) | disorder in corneal endothelial cells (phase contrast microscope) ([1]; 0.001, 0.003, 0.01, 0.03, 0.1, 0.3, 1, and 3 μM) | activity of Caspase 3/7 ([3]; 0.003, 0.01, 0.03, 0.1, 0.3, 1, and 3 μM) | activity of Caspase 3/7 ([3]; in the order of 0.0001, 0.0003, and 0.001 μM) | ratio of (caspase 3/7 activity)/(cell viability) [3] | disorder in corneal endothelial cells (phase contrast microscope) ([1]; 0.0001, 0.0003, 1, and 3 μM) | disorder in corneal endothelial cells (phase contrast microscope) ([1]; 0.001, 0.003, 0.01, 0.03, and 0.1 μM) | activity of Caspase 3/7 ([3]; 0.01, 0.03, 0.1, 0.3, and 1 μM) | activity of Caspase 3/7 ([3]; in the order of 0.0001, 0.0003, 0.001, and 0.003 μM)
1 | Cc1noc(=O)c2ccc(NC(=O)C(O)(CC(C)(C)c3cccc4c3OCC4)C(F)(F)F)cc12 (single isomer, unassigned; (+)) [ZK216348, (+)-4-(2,3-dihydro-1-benzofuran-7-yl)-2-hydroxy-4-methyl-N-(4-methyl-1-oxo-2,3-benzoxazine-6-yl)-2-(trifluoromethyl)pentanamide] | free cells were decreased and a disorder in corneal endothelial cells was suppressed |  |  |  |  |  |  |  |  |  | 
2 | C[C@@H]1C[C@H]2[C@@H]3C[C@H](F)C4=CC(=O)C=C[C@]4(C)[C@@]3(F)[C@@H](O)C[C@]2(C)[C@@]1(OC(=O)c1ccco1)C(=O)SCF [fluticasone furoate] |  | no significant difference from the Control group | effect of suppressing a disorder in corneal endothelial cells was confirmed | effectively suppressed | almost the same as those in the Control group | decreased | below 0.8 |  |  |  | 
3 | CCC(=O)O[C@]1(C(=O)SCF)[C@H](C)C[C@H]2[C@@H]3C[C@H](F)C4=CC(=O)C=C[C@]4(C)[C@@]3(F)[C@@H](O)C[C@@]21C [fluticasone propionate] |  | no significant difference from the Control group |  |  |  |  | below 0.8 | effect of suppressing a disorder in corneal endothelial cells was confirmed | effectively suppressed | almost the same as those in the Control group | decreased
